Experimental findings from patent US10131693B2, “Bipodal-peptide binder” (GWANGJU INSTITUTE OF SCIENCE AND TECHNOLOGY, priority 2008, dated 2018) are described below.

Residues, ends and D or L forms follow the SMILES beside them.

This assay concerns the target T1, fibronectin ED-B (Homo sapiens, UniProt P02751).
T1 construct: After transformation of pET28b vector carrying fibronectin ED-B into BL21 cells; His-tag (N); made in house; host or cells: E. coli BL21 (pET28b)
The assay is described as follows: SPR (Biacore) affinity measurement to fibronectin ED-B. Format: binding. As to the method:
Bipodal-peptide binder peptides specific to ED-B, VEGF or nAchR which were repetitively found in DNA sequencing were synthesized from Anigen Inc. (Korea). Affinity was measured using BlAcore X instrument (Biacore AB, Uppsala, Sweden). ED-B and nAchR were immobilized on streptavidin (SA) chip (Biacore) by injecting 2,000 RU biotinylated-EDB. VEGF was immobilized on CM5 chip (Biacore) using EDC/NHS. PBS (pH 7.4) was used as a running buffer. […].
. In addition to tryptophan zipper, GB1m3 and HP7 peptide as a type of other β-hairpin backbones were synthesized to contain N-terminal sequence (HCSSAV) and C-terminal sequence (IIRLEQ) of peptide 2 which is specifically bound to ED-B (Anigen, Korea). In other words, the sequence of bipodal-peptide binder in tryptophan zipper is […] (SEQ ID NO:21), and in GB1m3and HP7 are […] (SEQ ID NO:63) and […] (SEQ ID NO:64), respectively. Affinity of each peptide was measured using BIAcore X (Biacore AB, Uppsala, Sweden). […]
A leucine zipper motif as a structure stabilizing region instead of β-hairpin structure was synthesized to contain N-terminal sequence (HCSSAV) and C-terminal sequence (IIRLEQ) of peptide 2 which is specifically bound to ED-B, producing two peptides, […] […] Both peptides were formed as dimer, and their affinities were measured using BlAcore X (Biacore AB, Uppsala, Sweden). […]
(In general: SPR reads the build-up and loss of mass on a sensor chip optically.)

T1 sequence (P02751 1271-1359 limits assumed): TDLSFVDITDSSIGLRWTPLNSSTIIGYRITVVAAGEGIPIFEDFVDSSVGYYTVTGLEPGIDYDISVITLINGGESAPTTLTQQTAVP

With `CC[C@H](C)[C@H](NC(=O)CNC(=O)[C@H](CCCCN)NC(=O)[C@H](Cc1c[nH]c2ccccc12)NC(=O)[C@@H](NC(=O)[C@H](Cc1c[nH]c2ccccc12)NC(=O)[C@H](CCCCN)NC(=O)CNC(=O)[C@H](CC(N)=O)NC(=O)[C@H](CCC(=O)O)NC(=O)[C@H](Cc1c[nH]c2ccccc12)NC(=O)[C@@H](NC(=O)[C@H](Cc1c[nH]c2ccccc12)NC(=O)[C@H](CO)NC(=O)CNC(=O)[C@@H](NC(=O)[C@H](C)NC(=O)[C@H](CO)NC(=O)[C@H](CO)NC(=O)[C@H](CS)NC(=O)[C@@H](N)Cc1c[nH]cn1)C(C)C)[C@@H](C)O)[C@@H](C)O)C(=O)N[C@H](C(=O)N[C@@H](CCCNC(=N)N)C(=O)N[C@@H](CC(C)C)C(=O)N[C@@H](CCC(=O)O)C(=O)N[C@@H](CCC(N)=O)C(=O)O)[C@@H](C)CC` [Peptide 2 (fibronectin ED-B)] (H-HCSSAVGSWTWENGKWTWKGIIRLEQ-OH; N-terminus and C-terminus assumed), the equilibrium dissociation constant (Kd) (usually a measure of binding affinity in units of concentration) worked out at 0.043 µM.
